Source: patent US20220184003A1, “Formulations of Cannabidiol Derivatives and Their Use as Modulators of Cannabinoid Receptor Type 2 (CB2)” (EMERALD HEALTH PHARMACEUTICALS INC, priority 2019, published 2022)

Assay: Log D determination (octanol / phosphate buffer pH 7.4)
Conditions: octanol / 0.1 M phosphate buffer pH 7.4, pH 7.4
Description: Lipophilicity is a key determinant of the PK behavior of drugs. It can influence distribution into tissues, absorption and the binding characteristics of a drug, as well as being an important factor in determining the solubility of a compound. Log D (distribution co-efficient) is used as a measure of lipophilicity.
The solution was transferred to tubes, centrifuged and the supernatant is drawn off the top, leaving any solid compound in the bottom. This supernatant was then syringe filtered through 0.2 μm filters to produce the initial solution. Three vials were prepared containing values. […] The vials were mixed to equilibrium, then centrifuged to ensure the two phases were fully separated before the octanol was removed and the buffer samples analyzed. For the quantitative analysis, the aqueous solutions were analyzed by LC MS/MS. The amount of VCE-004.8 in each vial was quantified against a 6 points standard curve which was produced by serially diluting the initial solution. Log D was calculated using the equation, shown in FIG. 7, wherein ConcINITlAL is a concentration of compound in the initial aqueous solution, ConcFINAL is a concentration of compound in final aqueous phase, Vaq is a volume of aqueous phase, and Voct is a volume of octanol phase.

## C=C(C)[C@@H]1CCC(C)=C[C@H]1c1c(O)cc(CCCCC)cc1O [CBD, cannabidiol]
  logD: 5.44
